Columns and labels:
[1] = test system: OVCAR-4 cells; assay: Cell proliferation assay (alamarBlue), OVCAR-4; type: cell-based, human; conditions: for IC50: OVCAR-4, 48 h incubation
Description: The cell line COV362 (CVCL_2,420) was originally established from a high-grade ovarian serous adenocarcinoma from a metastatic site in the pleural effusion ([van den Berg-Bakker et al., 1993]) and was purchased from ECACC (ECACC 07071910) as p37 on 13 October 2017. The growth medium for COV362 cells was DMEM (D5546; Sigma–Aldrich GmbH), with 10% FBS (F9665; Sigma–Aldrich GmbH) and 2 mM L-glutamine (G7513; Sigma–Aldrich GmbH). COV362 cells in passages p37 + 12 to p37 + 17 were used in this study and seeded at a concentration of 3.5 cells/ml × 10^4 cells/ml for proliferation studies and at a concentration of 5.3 × 10^5/ml for migration studies. The cell line OVCAR-4 (CVCL_1,627) is a high-grade serous ovarian adenocarcinoma cell line established from a patient refractory to cisplatin ([Johnson et al., 1997]). The cell line was purchased from Merck on 19 March 2021. The growth medium for OVCAR-4 cells was RPMI-1640 (Sigma R5586) supplemented with 2 mM glutamine (G7513; Sigma–Aldrich GmbH), 10% FBS (F9665; Sigma–Aldrich GmbH), 0.25 μg/ml insulin (I9278; Sigma–Aldrich GmbH). OVCAR-4 cells in passages p+6 to p+15 were used in this study and seeded at a concentration of 6 cells/ml × 10^4 cells/ml. The control cell line HIO80 (CVCL_E274) was obtained from Andrew K. Godwin (University of Kansas Medical Center, Kansas, United States) on 20 October 2017 as p+72. It was originally established from ovarian surface epithelium ([Yang et al., 2004]). HIO80 cells were grown in RPMI medium (R5886, Sigma–Aldrich GmbH) supplemented with 10% FBS (F9665; Sigma–Aldrich GmbH), 2 mm L-glutamine (G7513; Sigma–Aldrich GmbH) and 6.6 µg/ml insulin (I9278; Sigma–Aldrich GmbH). HIO80 cells in passages p72 + 8 to p72 + 19 were used in this study and seeded at a concentration of 2 × 10^4 cells/mL. HIO80 in passage +10 was authenticated by short tandem repeats (STR) profiling performed by ATCC on 22 February 2019. Cells were grown in a humidified atmosphere containing 5% CO2 at 37°C. All cell lines were negative for mycoplasma infection which was periodically tested using MycoAlert^TM mycoplasma detection kit (Lonza, Basel, Switzerland).
The effect of ruthenium compounds on the proliferation of ovarian cancer cell lines COV362 and OVCAR-4 and the control cell line HIO80 was analyzed using the cell proliferation reagent alamarBlue HS (A50101; Thermo Fisher Scientific) following the manufacturer’s instructions.
Cells were seeded in 96-well plates in 100 µL of medium and allowed to adhere and grow for 24 h. […] Cisplatin and carboplatin purchased from Sigma–Aldrich GmbH (cat. number: PHR1624, lot: LRAB7778) and (cat. number: C2538, lot: MKCK1243) were dissolved in sterile water. Working solutions were prepared by a serial dilution of stock solutions with a culture medium. After the initial incubation, cells were treated with ruthenium complexes, cisplatin, and carboplatin. A range of final concentrations between 0.001 and 300 µM were used for ruthenium complexes and cisplatin, and between 0.001 µM and 1 mM for carboplatin. After 48 h of incubation, plates were incubated with 20 µL of alamarBlue. After 4 h absorbance was measured with a BioTek microplate spectrophotometer at 570 nm, with the reference wavelength set at 600 nm. First, the background value of a well containing the active substance without cells was subtracted, then the average values for duplicates/triplicates were calculated. The absorbance of the well containing only untreated cells was used as a normalization control. The half-maximal […] concentration (IC50) was determined for all ruthenium complexes with a growth-inhibiting effect on cells by constructing a dose-response curve (Graph Pad Prism, Version 8.0).

[2] = test system: COV362 cells; assay: Cell migration assay (Ibidi culture inserts), COV362; type: cell-based, human; conditions: 100 μM; for effect on cell migration (in words): 24 and 48 h
Description: Cell migration assay was performed using Ibidi® three-well culture inserts. The inserts were placed in six-well plates. In total, 70 µL of cell suspension was seeded in the inserts and allowed to adhere and grow for 24 h. When the cells formed a confluent monolayer, the inserts were carefully removed and the cells were washed two times with DPBS. Cells were treated with 100 μM (final concentration) of compounds 8, 9, cisplatin, and carboplatin in 2 ml of growth medium. Cells treated with a medium containing the same volume of sterile water or DMSO were used as the controls. Images of cell gaps were taken with Axio Scope A1 Polarized Light Microscope (Zeiss) at the time of treatment, 24 and 48 h after, and analyzed using ImageJ software.

| SMILES | fold higher IC50 value on OVCAR-4 compared to COV362 [1] [fold] | IC50 [1] [µM] | effect on cell migration (in words) [2] | fold lower IC50 value on OVCAR-4 compared to COV362 [1] [fold] | cytotoxic effect in migration assay (in words) ([2]; after 48 h incubation) |
| --- | --- | --- | --- | --- | --- |
| Cc1ccc(C(C)C)cc1.[Cl-].[O-]c1c(I)cc(Cl)c2cccnc12.[Ru+2] [Compound 7] | 1.6 | 28.1 |  |  |  |
| C1N2CN3CN1CP(C2)C3.Cc1ccc(C(C)C)cc1.F[P-](F)(F)(F)(F)F.[O-]c1c(I)cc(Cl)c2cccnc12.[Ru+2] [Compound 8] | 2.6 | 97.5 | inhibited cell migration similarly to cisplatin |  |  |
| Cc1ccc(C(C)C)cc1.O=[N+]([O-])c1ccc([O][Ru][Cl])c2ncccc12 [Compound 9, (η ^6-p-Cymene) (nitroxolinato)chloridoruthenium (II)] |  | 14.4 | prevented migration | 1.5 | cytotoxic effect |

— publication PMC9403717, “Ruthenium complexes show potent inhibition of AKR1C1, AKR1C2, and AKR1C3 enzymes and anti-proliferative action against chemoresistant ovarian cancer cell line” (Frontiers in Pharmacology, 2022)
